For test [1], the target named is T1, BmMetRS (Brucella melitensis methionyl-tRNA-synthetase) (Brucella abortus, UniProt Q2YQ76).
T1 construct: gene metG
The experiment in a line: biochemical.

Test [2] has as its target T2, human mitochondrial MetRS (Homo sapiens, UniProt Q96GW9).
T2 construct: gene MARS2
T2 sequence (Q96GW9 30-593): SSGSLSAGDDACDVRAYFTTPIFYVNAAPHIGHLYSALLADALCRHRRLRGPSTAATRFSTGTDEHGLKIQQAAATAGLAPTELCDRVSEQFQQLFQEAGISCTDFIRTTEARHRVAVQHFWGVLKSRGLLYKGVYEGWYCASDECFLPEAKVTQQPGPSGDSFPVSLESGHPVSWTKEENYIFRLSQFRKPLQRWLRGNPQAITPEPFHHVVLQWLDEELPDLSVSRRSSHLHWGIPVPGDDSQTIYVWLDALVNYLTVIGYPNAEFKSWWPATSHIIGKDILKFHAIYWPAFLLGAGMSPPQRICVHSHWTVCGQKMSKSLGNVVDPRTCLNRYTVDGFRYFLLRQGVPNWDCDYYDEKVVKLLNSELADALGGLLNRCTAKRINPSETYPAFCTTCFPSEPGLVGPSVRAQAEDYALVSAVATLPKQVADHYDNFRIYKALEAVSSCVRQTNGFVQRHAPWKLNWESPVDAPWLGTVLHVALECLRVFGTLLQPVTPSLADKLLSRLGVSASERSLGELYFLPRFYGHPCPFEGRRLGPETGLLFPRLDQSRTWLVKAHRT
As to the kind of experiment: enzyme inhibition, assay not given. It is filed as biochemical.

This passage reports IC50 results from article PMC4976878 (PLoS ONE, 2016).

Each structure is given as a SMILES string.

T1 sequence (Q2YQ76 1-515 limits assumed): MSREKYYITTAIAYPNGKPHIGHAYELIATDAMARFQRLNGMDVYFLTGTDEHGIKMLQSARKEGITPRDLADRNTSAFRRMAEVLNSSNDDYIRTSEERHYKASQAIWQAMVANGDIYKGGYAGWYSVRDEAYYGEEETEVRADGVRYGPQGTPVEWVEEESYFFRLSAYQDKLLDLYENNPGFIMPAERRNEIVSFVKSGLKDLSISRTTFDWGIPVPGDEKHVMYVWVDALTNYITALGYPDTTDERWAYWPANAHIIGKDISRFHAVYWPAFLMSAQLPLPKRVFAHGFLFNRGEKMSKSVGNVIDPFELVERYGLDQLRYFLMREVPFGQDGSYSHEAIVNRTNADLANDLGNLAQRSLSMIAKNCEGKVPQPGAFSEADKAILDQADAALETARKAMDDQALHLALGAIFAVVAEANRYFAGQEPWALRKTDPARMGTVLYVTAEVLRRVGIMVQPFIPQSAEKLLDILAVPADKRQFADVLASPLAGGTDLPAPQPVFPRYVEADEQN

On to `O=C(NCCCNCc1cc(Cl)cc(Cl)c1)Nc1ccsc1` [compound 1433, 1433], for which the 50% inhibitory concentration (IC50) in test [1] is 272 nM; in test [2], “The characteristics of each inhibitor experimentally measured against human mitochondria MetRS”.
In the same order, the values of `O=c1cc(NCCCNCc2cc(Cl)cc(Cl)c2)[nH]c2ccccc12` [compound 1312, 1312] are 6 nM and “the IC50 values from human mitochondrial MetRS is very similar to that of BmMetRS”.
In the same order, the values of `COc1cc(Cl)cc(CNCCCNC(=O)Nc2ccccc2)c1` [compound 1415, 1415] are 1660 nM and “The characteristics of each inhibitor experimentally measured against human mitochondria MetRS”.

A word on the IC50: it is the concentration that gives 50% inhibition. Read a high IC50 as lower potency.
